From patent publication US7482427B2, “Positive modulator of bone morphogenic protein-2” (BioSurface Engineering Technologies, Inc., priority 2002, dated 2009)

Tests used:
C2C12 cells = experiment: Alkaline phosphatase (ALP) activity assay in C2C12 cells; assay type: cell-based, Mouse; conditions: for induction of ALP by growth factor in the presence of B2A2: B2A2 1000 ng/mL, FGF-2 50 ng/mL, VEGF 25 ng/mL, TGF-β1 50 pg/mL, 3 days
Protocol: Alkaline phosphatase (ALP) Activity Assay. C2C12 cells and C3H10T½ cells were cultured at 37° C. in a humidified atmosphere of 5% CO2 and 95% air, with DMEM/F12 medium supplemented with 10% serum, penicillin/streptomycin. […] At 4-5 days post induction, ALP activity was determined as described by Akiyama and colleagues (Akiyama et al. 1997, Exp Cell Res 235(2):362-9.) with modifications. Briefly, cells were washed once with phosphate-buffered saline (PBS) and lysed with 0.1% Triton×100 in 10 mM Tris HCl, pH 9.0. Protein concentration was determined using the BCA Protein Assay Kit (Pierce Biotechnology, Rockford, Ill.). Then ALP activity was measured by adding ALP buffer (1 M diethanolamine, 0.5 mM MgCl2, 1 mg/mL p-nitrophenylphosphate, pH 9.0), incubating in 37° C., and absorbance (405 nm) read at 15, 30 and 60 minutes using a microplate spectrophotometer (Molecular Devices, Sunnyvale, Calif.). The activity was expressed as O.D. per mg protein per hour.
B2A2 was tested to determine whether B2A2 enhanced the biological effects of CHO-produced rhBMP-2. […] Points represent means of quintuplicate determinations±SD.
B2A2 was tested in combination with other growth factors including FGF-2, VEGF, and tGF-β1 for induction of ALP in C2C12 cells. […] Mouse C2C12 cells were cultured as described for FIG. 1A, treated with a combination of various growth factors plus or minus B2A2, incubated for 3 days, and then assayed for ALP activity as described for FIG. 1A. […] Bars represent means of quintuplicate determinations±SD.
Mouse C2C12 cells were cultured as before and B2A2 (1000 ng/mL) was added to some wells. After a 45 minute incubation all wells were rinsed with fresh medium and the medium was replaced. […] After 5 days ALP activity was measured. […] Data is the means of triplicates±SD.
In FIG. 5A, a polystyrene surface of 96-well plates were first coated by silyl-heparin (open bars), followed by a 1 μg/mL solution of B2A2 (solid bars) in PBS for (1 hr at 37° C.) and rinsed in PBS and dried at room temperature. […] ALP activity was measured five days later. Data is the means of triplicates±SD.
In FIG. 5B, stainless steel wafers were first coated with silyl-heparin (open bars) followed by 100 μg/mL B2A2 in PBS as a second coating (solid bars) and rinsed in PBS and dried at room temperature. Wafers were coated separately in wells of a 24-well plate and transferred to a fresh untreated plate prior to cell seeding.
ALP activity was measured five days later. Data is the means of triplicates±SD.

[1] = tested on: C3H10T½, MC3T3 cells or hFOB; experiment: Cell migration across simulated wound margin, positive control (cell line not specified); assay type: cell-based; conditions: positive control reference, FGF-2 50 ng/mL, 6 hours (data not shown)
Protocol: Cell migration. For studies involving migration across a wound margin, the cells were grown in vitro and used when approximately 90% confluent. A simulated wound was made by scraping cells away from the cultureware surface. The cultures were rinsed to remove unbound cells, and then incubated in DMEM:F12 medium containing 2% newborn calf serum with or without peptide. FGF-2 (50 ng/mL) was used as a positive control reference material. The cells were allowed to migrate for 6 hours after which the cells were fixed in buffered formalin. Migration was monitored via phase contrast microscopy. Migrating cells were those that had migrated across the site of the simulated wound margin.
B2A2-K-NS was tested for its ability to induce cells of preosteoblast origin to migrate to a stimulated wound margin. Murine C3H10T½, MC3T3 cells or hFOB were grown to near confluency in vitro. A stimulated wound was made by scraping the cells away from the substrate. The cells were allowed to migrate for 6 hours after which migration was monitored via microscopy. Statistical significance was determined using ANOVA followed by post hoc testing using multiple comparison versus control group (Dunnett's Method). […] Table 3 summarizes the increase in migrating cells at the simulated wound margin induced by about 0.2 to 2.0 μg/mL B2A2-K-NS.

[2] = tested on: BMPR and ActivinR isoforms; experiment: Solid phase receptor binding assay, panel of receptor/Fc chimeras; conditions: insulin adsorbed to plates; Endostatin-Fc as unrelated chimeric protein
Protocol: Receptor binding assays. Binding to BMP receptors in a solid phase binding assay. B2A2 was absorded onto ELISA plates to saturation, soluble BMP receptor-immunoglobin Fc fusion proteins were added, and bound receptor was detected by HRP-conjugated anti-Fc antibody and colorimetric assay, values shown are background substracted. Specific binding of B2A2 to different receptor isoforms of the BMPR and Activin Receptor family were tested, employing the receptor-Fc chimeras shown. […] Bound receptor was displaced by the addition of rhBMP-2 at the levels indicated.
The compound of Example 2 was tested for specific binding to Bone Morphogenic Protein-2 receptors. Referring now to FIG. 12, results of solid phase receptor binding assays utilizing purified receptor/Fc chimeric molecules are illustrated. The chimeras are recombinant constructs of the soluble ectodomain of various receptor molecules (BMPR and ActivinR isoforms) fused to the carboxyl-terminal of the human IgG1 Fc region via a polypeptide liner. ELISA plates were coated with B2A2 or control compounds, soluble chimeric receptor/Fc antibody and quantified with a colorimeteric ELISA.

Row | Substance | induction of ALP by growth factor in the presence of B2A2 (C2C12 cells) | other results
1 | VEGF | failed to induce ALP | –
2 | TGF-B: growth factor purchased from Sigma Aldrich, tested in combination with B2A2 | failed to induce ALP | –
3 | FGF-2: growth factor, positive control reference material for migration (50 ng/mL) | failed to induce ALP | migrating cells compared to controls [1]: significant increase in migrating cells
4 | Insulin | – | binding of negative controls [2]: did not bind
5 | benzyl-tetra(dimethylsilylmethyl)oxycarbamoyl-heparin [silyl-heparin, reference compound] | – | ALP activity on coated polystyrene surface (C2C12 cells; silyl-heparin coating alone, BMP-2 50 ng/mL in solution, 5 days): potentiates BMP-2 activity
